What was measured:
[1] = test system: Beet Armyworm (Spodoptera exigua) ("BAW"); assay: Bioassay on beet armyworm (BAW), 128-well diet tray assay; assay type: in vivo; details: 168 h, 50 μg/cm^2 on artificial diet, second instar BAW larvae, 25° C., five to seven days, average of eight wells, read-out: BAW % Control (or Mortality) rating
Method in brief: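 Percent mortality, averaged across eight wells, was read after five to seven days at 25° C. under 14:10 light-dark. Each well held one to five second-instar larvae on artificial diet that had been treated with 50 μg/cm^2 compound in 90:10 acetone-water and dried.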

[2] = test system: Cabbage Looper (Trichoplusia ni) ("CL"); assay: Bioassay on cabbage looper (CL), 128-well diet tray assay; assay type: in vivo; details: 168 h, 50 μg/cm^2 on artificial diet, second instar CL larvae, 25° C., five to seven days, average of eight wells, read-out: CL % Control (or Mortality) rating
Method in brief: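 Percent mortality, averaged across eight replicate wells, was read after five to seven days at 25 °C under a 14:10 photoperiod. Each well held one to five second-instar T. ni on diet carrying a dried 50 μg/cm^2 dose applied in acetone-water 90:10.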

Compound `Cc1ccc(C(C)C)c(N2CCCS/C2=N\C(=O)NCCc2ccc(-c3ncn(-c4ccc(OC(F)(F)F)cc4)n3)cc2)c1` [P59, (Z)-1-(3-(2-isopropyl-5-methylphenyl)-1,3-thiazinan-2-ylidene)-3-(4-(1-(4-(trifluoromethoxy)phenyl)-1H-1,2,4-triazol-3-yl)phenethyl)urea] has a mortality at 50 µg/cm2 [1] of 50 to 100% and a mortality at 50 µg/cm2 [2] of 50 to 100%.

For `Cc1ccc(C(C)C)c(N2CC(C)CS/C2=N\C(=O)NCCc2ccc(-c3ncn(-c4ccc(OC(F)(F)F)cc4)n3)cc2)c1` (stereo not drawn) [P64], the mortality at 50 µg/cm2 [1] was 50 to 100% and the mortality at 50 µg/cm2 [2] was 50 to 100%.

With `Cc1ccccc1N1C(=O)CS/C1=N\C(=O)NCCc1cccc(-c2ncn(-c3ccc(OC(F)(F)F)cc3)n2)c1` [P74, (Z)-1-(4-oxo-3-(o-tolyl)thiazolidin-2-ylidene)-3-(3-(1-(4-(trifluoromethoxy)phenyl)-1H-1,2,4-triazol-3-yl)phenethyl)urea] the mortality at 50 µg/cm2 [1] was 50 to 100% and the mortality at 50 µg/cm2 [2] was 50 to 100%.

With `CCc1ccccc1N1C(=O)CS/C1=N\C(=O)NCCc1cccc(-c2ncn(-c3ccc(OC(F)(F)F)cc3)n2)c1` [P75, (Z)-1-(3-(2-ethylphenyl)-4-oxothiazolidin-2-ylidene)-3-(3-(1-(4-(trifluoromethoxy)phenyl)-1H-1,2,4-triazol-3-yl)phenethyl)urea] the mortality at 50 µg/cm2 [1] was 50 to 100% and the mortality at 50 µg/cm2 [2] was 50 to 100%.

`CC(C)c1ccccc1N1C(=O)CS/C1=N\C(=O)NCCc1cccc(-c2ncn(-c3ccc(OC(F)(F)F)cc3)n2)c1` [P76, (Z)-1-(3-(2-isopropylphenyl)-4-oxothiazolidin-2-ylidene)-3-(3-(1-(4-(trifluoromethoxy)phenyl)-1H-1,2,4-triazol-3-yl)phenethyl)urea] showed a mortality at 50 µg/cm2 [1] of 50 to 100% and a mortality at 50 µg/cm2 [2] of 50 to 100%.

For `CCCc1ccc(C)cc1N1C(=O)CS/C1=N\C(=O)NCCc1cccc(-c2ncn(-c3ccc(OC(F)(F)F)cc3)n2)c1` [P80, (Z)-1-(3-(5-methyl-2-propylphenyl)-4-oxothiazolidin-2-ylidene)-3-(3-(1-(4-(trifluoromethoxy)phenyl)-1H-1,2,4-triazol-3-yl)phenethyl)urea], the mortality at 50 µg/cm2 [1] was 50 to 100% and the mortality at 50 µg/cm2 [2] was 50 to 100%.

Compound `CCc1cccc(C)c1N1C(=O)CS/C1=N\C(=O)NCCc1cccc(-c2ncn(-c3ccc(OC(F)(F)F)cc3)n2)c1` [P83, (Z)-1-(3-(2-ethyl-6-methylphenyl)-4-oxothiazolidin-2-ylidene)-3-(3-(1-(4-(trifluoromethoxy)phenyl)-1H-1,2,4-triazol-3-yl)phenethyl)urea] has a mortality at 50 µg/cm2 [1] of 50 to 100% and a mortality at 50 µg/cm2 [2] of 50 to 100%.

For `Cc1ccc(N2C(=O)CS/C2=N\C(=O)NCCc2cccc(-c3ncn(-c4ccc(OC(F)(F)F)cc4)n3)c2)c(C(C)C)c1` [P84, (Z)-1-(3-(2-isopropyl-4-methylphenyl)-4-oxothiazolidin-2-ylidene)-3-(3-(1-(4-(trifluoromethoxy)phenyl)-1H-1,2,4-triazol-3-yl)phenethyl)urea], the mortality at 50 µg/cm2 [1] was 50 to 100% and the mortality at 50 µg/cm2 [2] was 50 to 100%.

For `CC(C)c1cc(F)ccc1N1C(=O)CS/C1=N\C(=O)NCCc1cccc(-c2ncn(-c3ccc(OC(F)(F)F)cc3)n2)c1` [P85, (Z)-1-(3-(4-fluoro-2-isopropylphenyl)-4-oxothiazolidin-2-ylidene)-3-(3-(1-(4-(trifluoromethoxy)phenyl)-1H-1,2,4-triazol-3-yl)phenethyl)urea], the mortality at 50 µg/cm2 [1] was 50 to 100% and the mortality at 50 µg/cm2 [2] was 50 to 100%.

In the case of `COc1ccc(N2C(=O)CS/C2=N\C(=O)NCCc2cccc(-c3ncn(-c4ccc(OC(F)(F)F)cc4)n3)c2)c(C)c1` [P87, (Z)-1-(3-(4-methoxy-2-methylphenyl)-4-oxothiazolidin-2-ylidene)-3-(3-(1-(4-(trifluoromethoxy)phenyl)-1H-1,2,4-triazol-3-yl)phenethyl)urea], the mortality at 50 µg/cm2 [1] is reported as 50 to 100% and the mortality at 50 µg/cm2 [2] is reported as 50 to 100%.

`Cc1ccccc1N1C(=O)CS/C1=N\C(=O)NCCCc1ccc(-c2ncn(-c3ccc(OC(F)(F)F)cc3)n2)cc1` [P92, (Z)-1-(4-oxo-3-(o-tolyl)thiazolidin-2-ylidene)-3-(3-(4-(1-(4-(trifluoromethoxy)phenyl)-1H-1,2,4-triazol-3-yl)phenyl)propyl)urea] showed a mortality at 50 µg/cm2 [1] of 50 to 100% and a mortality at 50 µg/cm2 [2] of 50 to 100%.

Work on `CCc1ccccc1N1C(=O)CS/C1=N\C(=O)NCCCc1ccc(-c2ncn(-c3ccc(OC(F)(F)F)cc3)n2)cc1` [P93, P510, (Z)-1-(3-(2-ethylphenyl)-4-oxothiazolidin-2-ylidene)-3-(3-(4-(1-(4-(trifluoromethoxy)phenyl)-1H-1,2,4-triazol-3-yl)phenyl)propyl)urea] yielded a mortality at 50 µg/cm2 [1] of 50 to 100% and a mortality at 50 µg/cm2 [2] of 50 to 100%.

For `CC(C)c1ccccc1N1C(=O)CS/C1=N\C(=O)NCCCc1ccc(-c2ncn(-c3ccc(OC(F)(F)F)cc3)n2)cc1` [P94, P197, (Z)-1-(3-(2-isopropylphenyl)-4-oxothiazolidin-2-ylidene)-3-(3-(4-(1-(4-(trifluoromethoxy)phenyl)-1H-1,2,4-triazol-3-yl)phenyl)propyl)urea], the mortality at 50 µg/cm2 [1] was 50 to 100% and the mortality at 50 µg/cm2 [2] was 50 to 100%.

`CCCc1ccc(C)cc1N1C(=O)CS/C1=N\C(=O)NCCCc1ccc(-c2ncn(-c3ccc(OC(F)(F)F)cc3)n2)cc1` [P99, P830, (Z)-1-(3-(5-methyl-2-propylphenyl)-4-oxothiazolidin-2-ylidene)-3-(3-(4-(1-(4-(trifluoromethoxy)phenyl)-1H-1,2,4-triazol-3-yl)phenyl)propyl)urea] was tested, and the mortality at 50 µg/cm2 [1] was 50 to 100% and the mortality at 50 µg/cm2 [2] was 50 to 100%.

`Cc1ccc(N2C(=O)CS/C2=N\C(=O)NCCCc2ccc(-c3ncn(-c4ccc(OC(F)(F)F)cc4)n3)cc2)c(C(C)C)c1` [P102, (Z)-1-(3-(2-isopropyl-4-methylphenyl)-4-oxothiazolidin-2-ylidene)-3-(3-(4-(1-(4-(trifluoromethoxy)phenyl)-1H-1,2,4-triazol-3-yl)phenyl)propyl)urea] showed a mortality at 50 µg/cm2 [1] of 50 to 100% and a mortality at 50 µg/cm2 [2] of 50 to 100%.

`CC(C)c1cc(F)ccc1N1C(=O)CS/C1=N\C(=O)NCCCc1ccc(-c2ncn(-c3ccc(OC(F)(F)F)cc3)n2)cc1` [P103, P1150, (Z)-1-(3-(4-fluoro-2-isopropylphenyl)-4-oxothiazolidin-2-ylidene)-3-(3-(4-(1-(4-(trifluoromethoxy)phenyl)-1H-1,2,4-triazol-3-yl)phenyl)propyl)urea] showed a mortality at 50 µg/cm2 [1] of 50 to 100% and a mortality at 50 µg/cm2 [2] of 50 to 100%.

For `COc1ccc(N2C(=O)CS/C2=N\C(=O)NCCCc2ccc(-c3ncn(-c4ccc(OC(F)(F)F)cc4)n3)cc2)c(C)c1` [P105, (Z)-1-(3-(4-methoxy-2-methylphenyl)-4-oxothiazolidin-2-ylidene)-3-(3-(4-(1-(4-(trifluoromethoxy)phenyl)-1H-1,2,4-triazol-3-yl)phenyl)propyl)urea], the mortality at 50 µg/cm2 [1] was 50 to 100% and the mortality at 50 µg/cm2 [2] was 50 to 100%.

Compound `Cc1ccccc1N1C(=O)CS/C1=N\C(=O)NCCCc1cccc(-c2ncn(-c3ccc(OC(F)(F)F)cc3)n2)c1` [P118, (Z)-1-(4-oxo-3-(o-tolyl)thiazolidin-2-ylidene)-3-(3-(3-(1-(4-(trifluoromethoxy)phenyl)-1H-1,2,4-triazol-3-yl)phenyl)propyl)urea] has a mortality at 50 µg/cm2 [1] of 50 to 100% and a mortality at 50 µg/cm2 [2] of 50 to 100%.

`CCc1ccccc1N1C(=O)CS/C1=N\C(=O)NCCCc1cccc(-c2ncn(-c3ccc(OC(F)(F)F)cc3)n2)c1` [P119, (Z)-1-(3-(2-ethylphenyl)-4-oxothiazolidin-2-ylidene)-3-(3-(3-(1-(4-(trifluoromethoxy)phenyl)-1H-1,2,4-triazol-3-yl)phenyl)propyl)urea] was tested, and the mortality at 50 µg/cm2 [1] was 50 to 100% and the mortality at 50 µg/cm2 [2] was 50 to 100%.

Compound `CC(C)c1ccccc1N1C(=O)CS/C1=N\C(=O)NCCCc1cccc(-c2ncn(-c3ccc(OC(F)(F)F)cc3)n2)c1` [P120, (Z)-1-(3-(2-isopropylphenyl)-4-oxothiazolidin-2-ylidene)-3-(3-(3-(1-(4-(trifluoromethoxy)phenyl)-1H-1,2,4-triazol-3-yl)phenyl)propyl)urea] has a mortality at 50 µg/cm2 [1] of 50 to 100% and a mortality at 50 µg/cm2 [2] of 50 to 100%.

In the case of `Cc1ccc(C(C)C)c(N2C(=O)CS/C2=N\C(=O)NCCCc2cccc(-c3ncn(-c4ccc(OC(F)(F)F)cc4)n3)c2)c1` [P124, (Z)-1-(3-(2-isopropyl-5-methylphenyl)-4-oxothiazolidin-2-ylidene)-3-(3-(3-(1-(4-(trifluoromethoxy)phenyl)-1H-1,2,4-triazol-3-yl)phenyl)propyl)urea], the mortality at 50 µg/cm2 [1] is reported as 50 to 100% and the mortality at 50 µg/cm2 [2] is reported as 50 to 100%.

`CCCc1ccc(C)cc1N1C(=O)CS/C1=N\C(=O)NCCCc1cccc(-c2ncn(-c3ccc(OC(F)(F)F)cc3)n2)c1` [P125, (Z)-1-(3-(5-methyl-2-propylphenyl)-4-oxothiazolidin-2-ylidene)-3-(3-(3-(1-(4-(trifluoromethoxy)phenyl)-1H-1,2,4-triazol-3-yl)phenyl)propyl)urea] showed a mortality at 50 µg/cm2 [1] of 50 to 100% and a mortality at 50 µg/cm2 [2] of 50 to 100%.

`CCc1cccc(C)c1N1C(=O)CS/C1=N\C(=O)NCCCc1cccc(-c2ncn(-c3ccc(OC(F)(F)F)cc3)n2)c1` [P127, (Z)-1-(3-(2-ethyl-6-methylphenyl)-4-oxothiazolidin-2-ylidene)-3-(3-(3-(1-(4-(trifluoromethoxy)phenyl)-1H-1,2,4-triazol-3-yl)phenyl)propyl)urea] gave a mortality at 50 µg/cm2 [1] of 50 to 100% and a mortality at 50 µg/cm2 [2] of 50 to 100%.

Compound `Cc1ccc(N2C(=O)CS/C2=N\C(=O)NCCCc2cccc(-c3ncn(-c4ccc(OC(F)(F)F)cc4)n3)c2)c(C(C)C)c1` [P128, (Z)-1-(3-(2-isopropyl-4-methylphenyl)-4-oxothiazolidin-2-ylidene)-3-(3-(3-(1-(4-(trifluoromethoxy)phenyl)-1H-1,2,4-triazol-3-yl)phenyl)propyl)urea] has a mortality at 50 µg/cm2 [1] of 50 to 100% and a mortality at 50 µg/cm2 [2] of 50 to 100%.
